# Test results reported in patent EP2530078A1, “THIAZOLE DERIVATIVE” (Takeda Pharmaceutical Company Limited, priority 2010, dated 2011).
# Structures can show the parent of a compound that is named as a salt.
# Biological target: T1, human GPR52 (Homo sapiens, UniProt Q9Y2T5)
# T1 construct: expressed in transfected cells; host or cells: CHO(dhfr-) cells
# Experiment: Increase of intracellular cAMP concentration in human GPR52-expressing CHO cell (AlphaScreen cAMP assay)
# Type: cell-based
# Conditions: 0.5 h; test compound 10 µm, 37°C, 30 min, human GPR52-expressing CHO(dhfr-) cells; 100% = cAMP with 1 µM N-(2-hydroxyethyl)-3-[2-[3-(trifluoromethyl)benzyl]-1-benzofuran-4-yl]benzamide, 0% = DMSO; read-out: GPR52 agonist activity (%)
# Description: Increase of intracellular cAMP concentration in human GPR52-expressing CHO cell
# Using OptiPlate-384 (PerkinElmer Inc.), 1×10^4 human GPR52-expressing CHO(dhfr-) cells were incubated together with a test compound ([…]) in an assay buffer (30 µL, HBSS (containing Ca^2+ and Mg^2+), 0.5% BSA, 100 µM IBMX, 100 µM Ro20-1724, 5 mM HEPES (pH 7.55)) at 37°C for 30 min. Thereafter, according to the protocol of AlphaScreen cAMP Assay Kit (PerkinElmer Inc.), the intracellular cAMP concentration was measured by EnVision (PerkinElmer Inc.). The GPR52 agonist activity was calculated, assuming the intracellular cAMP concentration in the presence of 1 µM N-(2-hydroxyethyl)-3-[2-[3-(trifluoromethyl)benzyl]-1-benzofuran-4-yl]benzamide to be 100% and assuming the intracellular cAMP concentration when DMSO was added instead of the test compound to be 0%.
# T1 sequence (Q9Y2T5 whole entry): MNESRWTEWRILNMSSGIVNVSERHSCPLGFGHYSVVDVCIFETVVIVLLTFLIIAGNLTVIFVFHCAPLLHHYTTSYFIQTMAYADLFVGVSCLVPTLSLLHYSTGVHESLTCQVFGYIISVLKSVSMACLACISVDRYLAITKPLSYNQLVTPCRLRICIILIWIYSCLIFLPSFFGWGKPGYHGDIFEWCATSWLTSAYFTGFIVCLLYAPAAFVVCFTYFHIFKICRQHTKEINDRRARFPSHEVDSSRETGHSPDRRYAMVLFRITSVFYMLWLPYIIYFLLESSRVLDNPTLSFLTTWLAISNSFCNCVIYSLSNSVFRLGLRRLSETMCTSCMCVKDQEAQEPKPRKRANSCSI
row,Structure (SMILES),activation at 10 µM [%]
1,"Cn1nccc1C(=O)Nc1cnc(Cc2cccc(C(F)(F)F)c2)s1 [Example 1, 1-methyl-N-{2-[3-(trifluoromethyl)benzyl]-1,3-thiazol-5-yl}-1H-pyrazole-5-carboxamide]",92
2,"CCN1CC(C(=O)Nc2sc(Cc3cccc(C(F)(F)F)c3)nc2C)CC1=O (centres unmarked) [Example 4, 1-ethyl-N-(4-methyl-2-[3-(trifluoromethyl)benzyl]-1,3-thiazol-5-yl}-5-oxopyrrolidine-3-carboxamide]",72
3,"Cn1nccc1C(=O)Nc1sc(Cc2cccc(C(F)(F)F)c2)nc1CO [Example 6, N-{4-(hydroxymethyl)-2-[3-(trifluoromethyl)benzyl]-1,3-thiazol-5-yl}-1-methyl-1H-pyrazole-5-carboxamide]",83
4,"COCc1nc(Cc2cccc(C(F)(F)F)c2)sc1NC(=O)c1ccnn1C [Example 8, N-{4-(methoxymethyl)-2-[3-(trifluoromethyl)benzyl]-1,3-thiazol-5-yl}-1-methyl-1H-pyrazole-5-carboxamide]",78
5,"CCc1nc(Cc2cccc(C(F)(F)F)c2)sc1NC(=O)c1ccnn1C [Example 11, N-{4-ethyl-2-[3-(trifluoromethyl)benzyl]-1,3-thiazol-5-yl}-1-methyl-1H-pyrazole-5-carboxamide]",92
6,"CC(=O)N1CCC(C(=O)Nc2sc(Cc3cccc(C(F)(F)F)c3)nc2C)C1 (centres unmarked) [Example 21, 1-acetyl-N-{4-methyl-2-[3-(trifluoromethyl)benzyl]-1,3-thiazol-5-yl}pyrrolidine-3-carboxamide]",69

# Further lines, results first:
row,activation at 10 µM [%],Structure (SMILES)
1,78,"COCCNC(=O)[C@@H]1C[C@H]1C(=O)Nc1sc(Cc2cc(F)cc(Cl)c2)nc1C (relative stereo) [Example 189, trans-N-[2-(3-chloro-5-fluorobenzyl)-4-methyl-1,3-thiazol-5-yl]-N'-(2-methoxyethyl)cyclopropane-1,2-dicarboxamide]"
2,82,"COC(=O)[C@@H]1C[C@@H]1C(=O)Nc1sc(Cc2cc(F)cc(Cl)c2)nc1C (relative stereo) [Example 190, methyl cis-2-{[2-(3-chloro-5-fluorobenzyl)-4-methyl-1,3-thiazol-5-yl]carbamoyl}cyclopropanecarboxylate]"
3,75,"C=Cc1nc(Cc2cccc(C(F)(F)F)c2)sc1NC(=O)c1ccnn1C [Example 12, N-{4-ethenyl-2-[3-(trifluorornethyl)benzyl]-1,3-thiazol-5-yl}-1-methyl-1H-pyrazole-5-carboxamide]"
4,80,"CCCc1nc(Cc2cccc(C(F)(F)F)c2)sc1NC(=O)c1ccnn1C [Example 14, 1-methyl-N-{4-propyl-2-[3-(trifluoromethyl)benzyl]-1,3-thiazol-5-yl}-1H-pyrazole-5-carboxamide]"
5,72,"CCCCc1nc(Cc2cccc(C(F)(F)F)c2)sc1NC(=O)c1ccnn1C [Example 16, N-{4-butyl-2-[3-(trifluoromethyl)benzyl]-1,3-thiazol-5-yl}-1-methyl-1H-pyrazole-5-carboxamide]"
6,94,"Cn1nccc1C(=O)Nc1sc(Cc2cccc(C(F)(F)F)c2)nc1C(F)(F)F [Example 17, 1-methyl-N-{4-(trifluoromethyl)-2-[3-(trifluoromethyl)benzyl]-1,3-thiazol-5-yl}-1H-pyrazole-5-carboxamide]"

# Same assay, conditions: test compound 10 µm, 37°C, 30 min, human GPR52-expressing CHO(dhfr-) cells; 100% = cAMP with 1 µM N-(2-hydroxyethyl)-3-[2-[3-(trifluoromethyl)benzyl]-1-benzofuran-4-yl]benzamide, 0% = DMSO
row,Structure (SMILES),GPR52 agonist activity (%)
1,"Cc1nc(Cc2cccc(C(F)(F)F)c2)sc1NC(=O)C1CCNC1 (centres unmarked) [Example 20, N-{4-methyl-2-[3-(trifluoromethyl)benzyl]-1,3-thiazol-5-yl}pyrrolidine-3-carboxamide hydrochloride]",74
2,"CCNC(=O)N1CCC(C(=O)Nc2sc(Cc3cccc(C(F)(F)F)c3)nc2C)C1 (centres unmarked) [Example 23, N1-ethyl-N3-{4-methyl-2-[3-(trifluoromethyl)benzyl]-1,3-thiazol-5-yl}pyrrolidine-1,3-dicarboxamide]",80
